From patent publication US20240164380A1, “ANTIFUNGAL COMPOSITIONS AND METHODS FOR THEIR USE” (Texas Crop Science, Inc., priority 2022, published 2024)

Tests used:
apyrase = test: In vitro apyrase assay (screen for apyrase inhibitors); format: biochemical; conditions: inhibitor conc at 1 mM, 1 hr at room temperature, absorbance @630 nm
Experimental: Method 1: In Vitro Apyrase Assay:
The apyrase inhibitory activity was assessed using an in vitro assay. The method of Windsor, Bio Techniques 33:1024-1030 (November 2002) was used as follows:
96 well plates were used for the assay: (Greiner bio-one: REF-655901- 96 well, PS, F-bottom, Clear, Non-binding)
Reaction Buffer: 60 mM Hepes; 3 mM MgCl2, 3 mM CaCl2 and 3 mM ATP (pH 6.5)
Development Buffer A: 2% aqueous ammonium molybdate
Development Buffer B: 11% ascorbic acid in 37.5% TCA in water
Stop buffer C: 2% trisodium citrate in 2% acetic acid solution in water • Add 100 μl of reaction buffer to each well. • Add 10 μl of DMSO (control) or inhibitor/compound or compounds such as N1915 or orthovanadate to each well. (use inhibitor conc at 1 mM; orthovanadate at 2 mM and N1915 at 1 mM) • Add 10 μl of apyrase (concentration based on optimization—Dilute 1 U/μl enzyme to different concentrations such as 0.1 U, 0.05 U, 0.0025, 0.001 U, 0.0005 U—to find a good range) • Incubate plate at room temperature for 1 hr • Mix development buffer A and B in the ratio of 1:1.5 (just before use). • Add 50 ul of A:B mix in each well (incubate for 2 mins) • Add 50 ul of C in each well • Measure/Read Absorbance of plate @630 nm Compound 1 inhibited inhibited apyrase in this assay at about 60%. : […]

plant pathogenic fungi = test: Crop trials of fungicides with and without the enhancer compound (FIGS. 1-8); format: in vivo; conditions: soy, wheat and grape crops
Excerpt: FIG. 1 illustrates Asian soybean rust severity in untreated crop (UTC) versus soy treated with azoxystrobin, chlorothalonil, tebuconazole or azoxystrobin and tebuconazole with and without the present enhancer compound (TX 15) at 1, 7, 9, 14 and 16 days after application (DAA).
FIG. 2 illustrates frogeye leaf spot intensity of infection in soy in untreated crop (UTC) versus soy treated with azoxystrobin, chlorothalonil, tebuconazole or azoxystrobin and tebuconazole with and without the present enhancer compound (TX15) at 4, 11 and 18 (two trials) days after application (DAA).
FIG. 3 illustrates yellow rust foliar infection percentage of wheat in untreated crop (UTC) versus wheat with preventive application of AMISTAR® (azoxystrobin), folpet, PROLINE® (prothioconazole), REVYSTAR® (fluxapyroxad and mefentrifluconazole), A20944 (prothioconazole and pydiflumetofen), ELATUS® ERA (prothioconazole and benzovindiflupyr), A21857 (ADEPIDYN®; pydiflumetofen), INATREQ® (fenpicoxamid) with and without the present enhancer compound (TX 15). […]
FIG. 7 illustrates the severity of downy mildew attack on grape crops assessed as to bunches and leaves in untreated crop (UTC) versus crop treated with cyazofamid or cyazofamid and the present enhancer compound (TX 15). […]

[1] = system: Zymoseptoria tritici (Septoria tritici); test: Greenhouse crop test of Compound 1 with metconazole on winter wheat; format: in vivo; conditions: winter wheat infected with Z. tritici, preventative spray 1 d before inoculation, FIG. 9
Experimental: A 2019 field isolate of Zymoseptoria tritici (Septoria tritici) was grown on potato dextrose agar (PDA), amended with penicillin and streptomycin, to eliminate possible bacterial contamination, for 6 d at 20° C.
Spore suspensions were made by flooding the plates with sterile distilled water and scraping gently. The spore suspensions were adjusted to 10^6 conidia mL^−1, by haemocytometer counts and appropriate dilution, before final re-suspension in potato dextrose broth, amended with 1.5 g L^−1 gelatin and 0.5 g L^−1 sodium oleate.
Septoria-susceptible winter wheat cv Trinity was planted in Levington M3 compost. Seeds (12-15 per pot) were planted per 9 cm pot and grown to growth stage 12. Plants were accommodated in a glasshouse with day heating to 20° C., venting at 22° C., and night heating to maintain 15° C. Plants were inoculated with Z. tritici by spraying spore suspensions at 10^6 spores ml^−1 to just before run-off. Three replicate pots were used per treatment. The plants were placed in sealed, transparent propagators for 72 hours, to maintain high relative humidity and to ensure free water remained on leaves. […] Preventative fungicide sprays were made 1 d before inoculation. Treatments were randomised within the glasshouse. All fungicides were applied at the equivalent rate of 200 L water per hectare, using a calibrated pressurised hand-held sprayer. […]

| SMILES | inhibited apyrase (apyrase) | fungal growth in combination with exemplary fungicides (plant pathogenic fungi) | effect of combining Compound 1 (TX15) with the fungicide [1] |
| --- | --- | --- | --- |
| C/C(=N\NC(=O)c1cccc(C)c1)c1ccc2ccccc2c1 [Compound 1, (E)-3-methyl-N′-(1-(naphthalen-2-yl)ethylidene)benzohydrazide] | about 60% | dramatically reduces fungal growth | – |
| CC1(C)CCC(Cc2ccc(Cl)cc2)C1(O)Cn1cncn1 (stereo not drawn) [metconazole] | – | – | synergistic effect |
